Patent publication US20260048142A1, “METAL-CHELATED POLYPHENOL COMPLEX NANOPARTICLE, DRUG-LIPID PARTICLE, PREPARATION METHODS FOR THE SAME, AND USES THEREOF” (priority 2022, published 2026)
pIC50: −log10 of the molar value. Where two headings read alike, the source gives them in different places.

Test system: 293T cells
Assay: CCK8 cell activity, median lethal dose IC50
Type: cell-based, Human
Procedure: After incubating 293T cells with different concentrations of the metal-chelated polyphenol complex ([…]), cationic lipid (DOTAP, 0, 0.1, 0.3, 0.9, 2.7, 8.1, 24.3, 72.9, 218.7 μM) and ionizable lipid (ALC0315, 0, 0.1, 0.3, 0.9, 2.7, 8.1, 24.3, 72.9, 218.7 μM) for 48 hours, cell activity was detected using a CCK8 activity detection kit, and the median lethal dose IC50 of the metal-chelated polyphenol complex, cationic lipid (DOTAP) and ionizable lipid (ALC0315) for 293T cells was calculated respectively.
• Cell culture: cells were cultivated with DMEM culture medium containing 10% FBS and 1% Penicillin-Streptomycin Solution, and wait until the cell density reached 80%-90% of the culture bottle; • The remaining culture medium in the culture bottle was washed with PBS, the culture bottle was added with trypsin, and quickly transferred to a 37° C. incubator containing 5% CO2. During close observation, when the cells become slightly round, culture medium was added to stop digestion. The mixture was transferred to a centrifuge tube, centrifuged at 1500 RPM for 5 minutes, and the cells were resuspended with fresh culture medium; • Counting: the cell suspension was diluted to 10,0000 cells per 1 mL according to the purpose, 100 μL per well in a 96-well plate, and at least 5 replicates per group. Drug was added after 24 h of incubation at 37° C., 5% CO2; • After drug incubation for 48 h, 10% CCK8 was added, incubated for 1-3 h, and absorbance was measured by an ELISA reader at 450 nm;
[formula] • IC50 calculation method: with survival rate as the ordinate and drug concentration as the abscissa, IC50 was calculated by Graphpad using [Inhibitor] vs. normalized response-Variable slope analysis method.
The calculation method of IC50 is as described in Example 10.

Row | SMILES | pIC50 (Table 2-2, median lethal dose for 293T cells, 48 hours, CCK8, read-out: IC50) | pIC50 (Table 4-3, median lethal dose for 293T cells, CCK8, read-out: IC50) | pIC50 (Homo sapiens, HEK-293T, 48 h) | pIC50 (Homo sapiens, HEK-293T, Table 4-3, median lethal dose for 293T cells, CCK8, read-out: IC50)
1 | CCCCCCCC/C=C\CCCCCCCC(=O)OCC(C[N+](C)(C)C)OC(=O)CCCCCCC/C=C\CCCCCCCC (stereo not shown) [DOTAP, N-(2,3-dioleoyloxy) propyl)-N,N, N-trimethylammonium chloride] | 4.59 | 4.59 |  | 
2 | CCCCCCCCC(CCCCCC)C(=O)OCCCCCCN(CCCCO)CCCCCCOC(=O)C(CCCCCC)CCCCCCCC (stereo not shown) [ALC0315] |  |  | 3.94 | 3.94
